Test system: K562 human leukemia cells
Assay: Leukemia K562 cell model in rats, survival after onset of circulating blast cells
Format: in vivo
Settings: oral 30 mg/kg, treated for 7 to 14 days
Description: Male Waster rats (220-230 g) were used. Rats were maintained in cages with raised floors of wide wire mesh to prevent coprophagy. All animals were kept under uniform and controlled conditions of temperature and light/dark (12/12 h) cycles. The animals were fed with standard pelleted diet and water ad libitum and were left one week for acclimatization to animal room condition.
A known weight of total methanol extract and each of the isolated compounds (P1-P5) and the reference drug (TKIs) was dissolved in 3% v/v Tween 80 to produce solutions of 10% concentration.
In absence of LD50 values for the total methanol extract and each of the isolated compounds, an experimental dose of 100/mg kg was selected in this investigation to be given orally to rats. The reference drug, TKIs, were given orally at a certain dose (30 mg/kg). This dose was calculated by converting the therapeutic dose that used in human to rat's dose according to the table of Paget & Barnes (1964). […]
Rats were divided into 8 equal groups. […] After transplantation of the K562 cells, animals were monitored for the presence of circulating blast cells by blood sampling from the retro-orbital plexus according to Ratajczak et al. (1992) method.
After 5 weeks, leukemic cell transplantation in animals was monitored for the development of overt leukemia by retro-orbital plexus bleeding thrice weekly. […]

Cc1ccc(NC(=O)c2ccc(CN3CCN(C)CC3)cc2)cc1Nc1nccc(-c2cccnc2)n1 [TKIs, 4-[(4-methyl-1-piperazinyl)methyl]-N-[4-methyl-3-[[4-(3-pyridinyl)-2-pyrimidinyl]aminophenyl]benzamide methanesulfonate]
survival compared with control animals: not statistically different from the control animals

— patent US9345734B2, “Achillea fragrantissima extract, method for preparing Achillea fragrantissima extract and method for treating chronic myeloid leukemia” (King Saud University, priority 2013, dated 2016)
